According to US20160221932A1, “Methods and Uses of Melatonin Ligands” (priority 2013, published 2016):
Entries after “also recorded” stand apart in the source; their conditions may differ.

How the values were obtained:
[1] = system: rats with L5-L6 spinal nerves ligation; assay: L5-L6 spinal nerves ligature model, von Frey paw withdrawal threshold; type: in vivo, rat; settings: for AUC of the antiallodynic effect across 8 h: mean±SEM, VEH 36.24±1.8 g
Method: (§1) Animals: Wistar rats (150-250 g, Charles-River Saint-Constant, Quebec, Canada) were used for the formalin test, hot plate test and L5-L6 spinal nerves ligature model. The animals were housed at constant room temperature and humidity under a 12 h light/dark cycle (lights on at 7 AM). Food and water were available ad libitum.
L5-L6 Spinal Nerves Ligature: Nerve injury results in abnormal pain perception, known as neuropathic pain, which is associated with hyperalgesia (high pain sensibility) and allodynia (pain perception induced by innocuous stimuli) (Campbell and Meyer, 2006). The rat model for neuropathic pain develop by Kim and Chung (Kim and Chung, 1992) was used in which the L5 and L6 spinal nerves were ligated and two weeks later allodynia was measured by paw stimulation with von Frey filaments. Briefly, animals were anesthetized with a mixture of ketamine/xylazine/acepromazine (i.p.). Following surgical preparation and exposure of the dorsal vertebral column, the left L5 and L6 spinal nerves were exposed and tightly ligated with 3.0 chromic catgut suture distal to the dorsal root ganglion. For sham-operated rats, the nerves were exposed but not ligated. The incisions were closed using 3.0 vicryl sutures, and the animals were allowed to recover for 13 days.
On day 14 after surgery, rats were singularly placed in a test chamber (clear plastic, wire mesh-bottomed cage) and allowed to acclimatize for 30-40 min. Von Frey filaments (Stoelting, Wood Dale, Ill., USA) were used to measure the 50% paw withdrawal threshold using the up and down method by (Chaplan et al., 1994). […] Lifting of the paw indicated a positive response and prompted the use of the next weaker filament, whereas absence of paw withdrawal after 5 s indicated a negative response and prompted the next filament of increasing weight. This paradigm continued for four more measurements after the initial change of the behavioral response, or until five consecutive negative (assigned a score of 15 g), or four consecutive positive (assigned a score of 0.25 g) responses. The resulting score were used to calculate the 50% response threshold by using the formula proposed by Dixon et al., 1980.
Allodynia was considered to be present when paw withdrawal thresholds were less than 4 g. (Chaplan et al., 1994). All nerve-ligated rats were verified to be allodynic, responding to a stimulus of less than 4 g. Rats without allodynia were excluded. Following the determination of the basal response, tactile allodynia was assessed at 0.5, 1, 2, 3, 4, 5, 6, 7 and 8 h post-administration for each treatment below described.
[…] […] Another group of rats received only the vehicle (VEH) consisting on a 70% DMSO/saline solution (0.9% NaCl). All treatments were administered in a single subcutaneous injection with a volume of 1 ml. Rats were tested at 0 h (basal withdrawal threshold) and 0.5, 1, 2, 3, 4, 5, 6, 7 and 8 h post-treatment administration.
(§2) Statistical Analysis: Data analysis was done using SigmaPlot 12 (Systat Software, Inc.). Two-way ANOVA for repeated measures was used to analyze data from L5-L6 models using treatments (between) and testing time (within) as factors. One-way ANOVA was used to analyze AUC in the L5-L6 spinal nerves ligation model. One-way ANOVA was used for formalin and hot-plate tests. Post-hoc analyses were performed using Bonferroni t-test comparisons or Student-Newman-Keuls (SNK) test. All data are expressed as mean±Standard Error of the Mean (SEM). P<0.05 was considered significant.

Wistar rats [2] = assay: hot plate test; type: in vivo, rat
Method: Animals: Wistar rats (150-250 g, Charles-River Saint-Constant, Quebec, Canada) were used for the formalin test, hot plate test and L5-L6 spinal nerves ligature model. The animals were housed at constant room temperature and humidity under a 12 h light/dark cycle (lights on at 7 AM). Food and water were available ad libitum. Hot plate test: The hot-plate test was performed by using an electronically controlled hot-plate (Ugo Basile, Italy). The initial temperature was 38° C. A near linear increase in temperature (3° C. per min) was obtained by turning the heating adjustment to maximum. The temperature at which the fast hindpaw lick occurred was recorded as the nociceptive end-point. If no hindpaw lick was observed, the test was terminated at 52° C., and this cut-off value was used in the analysis. The plate was wiped with a wet cloth, and a fan located behind the plate allowed rapid cooling so that testing could be conducted every 7.5 min. Statistical Analysis: Data analysis was done using SigmaPlot 12 (Systat Software, Inc.). Two-way ANOVA for repeated measures was used to analyze data from L5-L6 models using treatments (between) and testing time (within) as factors. One-way ANOVA was used to analyze AUC in the L5-L6 spinal nerves ligation model. One-way ANOVA was used for formalin and hot-plate tests. Post-hoc analyses were performed using Bonferroni t-test comparisons or Student-Newman-Keuls (SNK) test. All data are expressed as mean±Standard Error of the Mean (SEM). P<0.05 was considered significant.

SNI rats = assay: spared nerve injury (SNI) model, dynamic plantar aesthesiometer; type: in vivo, rat; settings: 150 mg/kg s.c.
Method: Spared nerve injury (SNI) of the sciatic nerve and measurement of allodynia with the dynamic plantar aesthesiometer. SNI was performed according to the method of Decosterd and Woolf (2000). Rats were anaesthetized with sodium pentobarbital (50 mg/kg i.p.). The sciatic nerve was exposed at mid-thigh level […] to the trifurcation and freed of connective tissue; the three peripheral branches (sural, common peroneal, and tibial nerves) of the sciatic nerve were exposed without stretching nerve structures. Both tibial and common peroneal nerves were ligated and transected together. The sham procedure consisted of the same surgery without ligation and transection of the nerves. Fourteen days after SNI, mechanical allodynia was measured using the dynamic plantar aesthesiometer (Ugo Basile, Varese, Italy). Each rat was placed and allowed to move freely in one of the two compartments of the enclosure positioned on a metal grid surface. A mechanical stimulus was delivered to the plantar surface of the rat's hind paw through the metal grid by a steel filament (Von Frey-type), connected to a movable touch-stimulator unit exerting an increasing force of 3 g per second. The force inducing paw withdrawal was recorded to the nearest 0.1 g. Nociceptive responses for mechanical sensitivity (mechanical withdrawal threshold) were measured in grams before and after vehicle or drug administration by an experimenter blind to the treatments. A single trial at each time point was performed on the ipsilateral hind paw to SNI surgery for each rat. Nociceptive responses for mechanical sensitivity were expressed as mean±SEM (g). Groups of 6-7 rats per treatment were used, with each animal being used for one treatment only.
as §2

Wistar rats [3] = assay: formalin test; type: in vivo, rat; settings: 30 min prior to test
Method: as §1
Formalin Test: Antinociception was assessed using the formalin test (Dubuisson and Dennis, 1977). Rats were placed in open Plexiglas observation chambers for 60 min to allow them to acclimatize to their surroundings; then they were removed for formalin administration. Rats were gently restrained while the dorsal surface of the right hindpaw was injected with […] of 1% formalin (37% formaldehyde solution further diluted in saline solution) with a 30-gauge needle. The animals were returned to the chambers and nociceptive behavior was observed immediately after formalin injection. Mirrors were placed in each chamber to enable unhindered observation. Licking/biting behavior directed to the formalin injected paw was scored in 5 min intervals considering number and duration of the licking. Cumulative behavior for the total duration of the test as well as the first (0-10 min) and second phase (20-50 min) was then analyzed (Sufka et al., 1998).The initial acute phase (0-10 min) was followed by a relatively short quiescent period, which was then followed by a prolonged tonic response (15-60 min). The first phase is considered to be the result of direct stimulation of nociceptors, whereas inflammation process contributes to phase 2 activity (Hunskaar and Hole, 1987). At the end of the experiment the rats were sacrificed in a CO2 chamber.
as §2

human-cloned MT1 = biological target: T1, human-cloned MT1 (Homo sapiens, UniProt P48039); assay: impedance assay in CHO cells expressing human-cloned MT1 (functional activity); type: cell-based; as to MT1 Activity: key: A = ago0nist; PA = partial agonist; ANT = antagonits
T1 construct: expressed in transfected cells
T1 sequence (P48039 whole entry): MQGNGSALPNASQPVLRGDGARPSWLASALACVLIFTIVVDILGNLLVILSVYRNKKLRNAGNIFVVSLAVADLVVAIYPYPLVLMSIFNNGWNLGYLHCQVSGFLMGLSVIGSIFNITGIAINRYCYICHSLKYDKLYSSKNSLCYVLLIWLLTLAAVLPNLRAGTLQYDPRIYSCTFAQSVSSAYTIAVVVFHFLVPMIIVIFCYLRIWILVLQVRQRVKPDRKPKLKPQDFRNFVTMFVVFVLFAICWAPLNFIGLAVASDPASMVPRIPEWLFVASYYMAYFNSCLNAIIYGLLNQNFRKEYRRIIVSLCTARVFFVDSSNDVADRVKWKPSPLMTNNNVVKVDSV

human MT2 receptor = biological target: T2, human MT2 receptor (Homo sapiens, UniProt P49286); assay: 2-[125I]iodomelatonin competition binding, human MT2 in CHO cells; settings: human MT2 stably expressed in CHO cells; calculated from IC50 by Cheng and Prusoff; read-out: MT2 pKi (converted)
T2 construct: expressed in transfected cells
T2 sequence (P49286 1-362): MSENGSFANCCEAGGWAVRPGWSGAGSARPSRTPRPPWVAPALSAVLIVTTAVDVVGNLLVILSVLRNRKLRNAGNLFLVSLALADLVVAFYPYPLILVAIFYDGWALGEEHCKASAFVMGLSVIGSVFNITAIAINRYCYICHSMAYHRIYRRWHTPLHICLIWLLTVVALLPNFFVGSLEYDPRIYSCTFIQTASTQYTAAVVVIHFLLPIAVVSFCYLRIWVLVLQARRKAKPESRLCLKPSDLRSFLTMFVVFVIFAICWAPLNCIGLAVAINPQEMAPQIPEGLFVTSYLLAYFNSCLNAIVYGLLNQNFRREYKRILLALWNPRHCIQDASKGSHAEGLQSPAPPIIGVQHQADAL

[4] = biological target: T3, human-cloned MT2 receptors (Homo sapiens, UniProt P49286); assay: cAMP assay in CHO cells expressing human-cloned MT2 (functional activity); type: cell-based; as to MT2 Activity: key: A = ago0nist; PA = partial agonist; ANT = antagonits
T3 construct: expressed in transfected cells
T3 sequence (P49286 1-362): T2 sequence (P49286 1-362)

human MT1 receptor = biological target: T4, human MT1 receptor (Homo sapiens, UniProt P48039); assay: 2-[125I]iodomelatonin competition binding, human MT1 in CHO cells; settings: human MT1 stably expressed in CHO cells; calculated from IC50 by Cheng and Prusoff; read-out: MT1 pKi (converted)
T4 construct: expressed in transfected cells
T4 sequence (P48039 whole entry): as the sequence (P48039 whole entry) above

[5] = 3 mg/kg s.c., listed as Ketoprofen
[6] = 3 mg/kg s.c., listed as ketoprofen

COc1ccc2[nH]cc(CCNC(C)=O)c2c1 [MLT, N-acetyl-5-methoxytryptamine, reference compound]
maximum increase in withdrawal threshold ([1]; 150 mg/kg s.c., at 2 h post-treatment): 335 % from baseline
AUC of the antiallodynic effect across 8 h ([1]; 150 mg/kg s.c.): 131.75±7.9
withdrawal temperature vs vehicle (Wistar rats [2]; 150 mg/kg s.c., 30 min post treatment): significant increase of the withdrawal temperature
withdrawal temperature vs vehicle (Wistar rats [2]; 150 mg/kg s.c., 1 hour post treatment): increase of withdrawal temperature; also recorded: increased the withdrawal temperature
withdrawal temperature vs vehicle (Wistar rats [2]; 150 mg/kg s.c., 4 hours post treatment): increase the withdrawal temperature
effect on mechanical allodynia compared with GBP 100 mg/kg (SNI rats): lower magnitude than that produced by GBP
licking time vs vehicle, first phase (Wistar rats [3]; 150 mg/kg s.c.): decreased the licking time
licking time vs vehicle, second phase (Wistar rats [3]; 150 mg/kg s.c.): decrease of the licking time; also recorded: decreased the licking time
licking time vs vehicle, total time (Wistar rats [3]; 150 mg/kg s.c.): decrease in the licking time; also recorded: decreased the licking time
licking time vs vehicle, first phase (Wistar rats [3]; 150 mg/kg s.c., listed as Melatonin): decrease in the licking time

CC(=O)Nc1ccc(O)cc1 [ACE, Acetaminophen, reference compound]
withdrawal temperature vs vehicle (Wistar rats [2]; 200 mg/kg s.c., 1 hour post treatment): increased the withdrawal temperature
withdrawal temperature vs vehicle (Wistar rats [2]; 200 mg/kg s.c., 1 hour post treatment, listed as acetaminophen): increase of withdrawal temperature
withdrawal temperature vs vehicle (Wistar rats [2]; 200 mg/kg s.c., 4 hours post treatment): increased the withdrawal temperature
withdrawal temperature vs vehicle (Wistar rats [2]; 200 mg/kg s.c., 4 hours post treatment, listed as acetaminophen): increase the withdrawal temperature

CC(C(=O)O)c1cccc(C(=O)c2ccccc2)c1 (centres unmarked) [KET, Ketoprofen, reference compound]
licking time vs vehicle, first phase (Wistar rats [3]; 3 mg/kg s.c.): decreased the licking time
licking time vs vehicle, second phase (Wistar rats [3]; 3 mg/kg s.c.): decreased the licking time
licking time vs vehicle, total time (Wistar rats [3]; 3 mg/kg s.c.): decreased the licking time
licking time vs vehicle, first phase (Wistar rats [3]; [5]): decrease in the licking time
licking time vs vehicle, second phase (Wistar rats [3]; [5]): decrease of the licking time
licking time vs vehicle, total time (Wistar rats [3]; [5]): decrease in the licking time
licking time vs vehicle, first phase (Wistar rats [3]; [6]): decrease in the licking time
licking time vs vehicle, second phase (Wistar rats [3]; [6]): decrease of the licking time
licking time vs vehicle, total time (Wistar rats [3]; [6]): decrease in the licking time

NCC1(CC(=O)O)CCCCC1 [GBP, gabapentin, reference compound]
maximum withdrawal threshold increase ([1]; 100 mg/kg s.c., at 4 h): 420 % from basal
AUC of the antiallodynic effect across 8 h ([1]; 100 mg/kg s.c.): 249.33 ± 22.1 g

CC(=O)NCCN(c1ccccc1)c1cccc(OCCCCc2ccccc2)c1 [5i, N-{2-[(3-pheny/butoxyphenyl)-phenyl-amino]ethyl}acetamide]
activity for the MLT receptor subtype MT1 (in words) (human-cloned MT1; CHO cells): antagonist activity
MT1 Activity (human-cloned MT1; intrinsic activity, human MT1 in CHO cells): ANT
Ki (human MT2 receptor): 331 nM
activity for the MLT receptor subtype MT2 (in words) ([4]; CHO cells): antagonist activity
MT2 Activity ([4]; intrinsic activity, human MT2 in CHO cells): ANT
Ki (human MT1 receptor): 35.5 nM

CCC(=O)NC1Cc2ccccc2C(c2ccccc2)C1 (centres unmarked) [4P-PDOT, reference compound]
effect of pre-treatment with MT2 antagonist on antiallodynic effect of 5p ([1]; 4P-PDOT 10 mg/kg 10 min before 5p 20 mg/kg, 8 h of testing): blocked the effects of 5p
